From patent publication US8030354B2, “Substituted biphenyl GPR40 modulators” (Amgen Inc., priority 2007, dated 2011)

Columns and labels:
GPR40 [1] = molecular target: T1, GPR40 (Homo sapiens, UniProt O14842); test: Inositol phosphate accumulation assay (A9_GPR40 cells); assay type: cell-based; set-up: expressed in transfected cells; host or cells: CHO cells stably transfected with GPR40 and aequorin; conditions: inositol phosphate assay, A9_GPR40 cells, 1 hour; read-out: IP3 EC50
In short: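 [^3H] inositol phosphate accumulation was measured by SPA after 1 h compound exposure at 37° C in HBSS/10 mM LiCl containing HSA, ending with a 20 mM formic acid quench. The GPR40-transfected A9 cells had first been labelled overnight (16 h) with 1 μCi/mL ^3H-inositol.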

GPR40 [2] = molecular target: T1, GPR40; test: Cell-based aequorin assay (CHO cells stably expressing GPR40 and aequorin); set-up: expressed in transfected cells; host or cells: CHO cells stably transfected with GPR40 and aequorin; conditions: activation of human GPR40, CHO cells, 0.01% HSA
In short: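 CHO cells stably co-expressing GPR40 and aequorin, loaded with coelenterazine (1 ug/mL, 2 h, room temperature) in H/HBSS with 20 mM Hepes and 0.01% fatty acid-free HSA. Serially diluted compounds added; luminescence recorded over 20 s. EC50 from dose-response of maximum relative light units.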

T1 sequence (O14842 whole entry): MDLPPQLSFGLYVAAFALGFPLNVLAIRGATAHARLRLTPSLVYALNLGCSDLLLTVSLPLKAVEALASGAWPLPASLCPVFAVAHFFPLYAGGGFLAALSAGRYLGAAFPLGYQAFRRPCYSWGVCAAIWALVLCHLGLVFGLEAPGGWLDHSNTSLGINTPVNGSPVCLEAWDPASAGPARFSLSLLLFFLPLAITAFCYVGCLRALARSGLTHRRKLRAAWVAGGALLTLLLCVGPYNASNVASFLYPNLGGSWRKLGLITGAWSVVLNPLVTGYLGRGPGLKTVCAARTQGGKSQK

| EC50 (GPR40 [1]) [nM] | EC50 (GPR40 [2]) [nM] | Aequorin EC50 (GPR40 [2]) | Structure (SMILES) |
| --- | --- | --- | --- |
| 10 to 100 | 100 to 1000 | – | CC[C@H](CC(=O)O)c1cccc(OCc2ccc(-c3cc(OC)ccc3F)c(C3CCCCCC3)c2)c1 (single isomer, unassigned) [Example 78.7, (3R)-3-(3-(((2-Cycloheptyl-2′-fluoro-5′-(methyloxy)-1,1′-biphenyl-4-yl)methyl)oxy)phenyl)pentanoic acid or (3S)-3-(3-(((2-cycloheptyl-2′-fluoro-5′-(methyloxy)-1,1′-biphenyl-4-yl)methyl)oxy)phenyl)pentanoic acid] |
| < 10 | 100 to 1000 | – | CCC(CC(=O)O)c1cccc(OCc2ccc(-c3cc(OC)ncc3F)c(C3CCCC3(C)C)c2)c1F (single isomer, unassigned) [Example 77.9] |
| 100 to 1000 | 100 to 1000 | – | COc1ccc(F)c(-c2ccc(COc3cccc(C(C)(C)CC(=O)O)c3)cc2C(C)(C)C)c1 [Example 85.1, 3-[3-(2-tert-Butyl-2′-fluoro-5′-methoxy-biphenyl-4-ylmethoxy)-phenyl]-3-methyl-butyric acid] |
| 10 to 100 | 100 to 1000 | – | COc1ccc(F)c(-c2ccc(COc3cccc(C(CC(=O)O)CC4CC4)c3)cc2C(C)(C)C)c1 (single isomer, unassigned) [Example 69.4, (3R)-4-Cyclopropyl-3-(3-(((2-(1,1-dimethylethyl)-2′-fluoro-5′-(methyloxy)-1,1′-biphenyl-4-yl)methyl)oxy)phenyl)butanoic acid or (3S)-4-cyclopropyl-3-(3-(((2-(1,1-dimethylethyl)-2′-fluoro-5′-(methyloxy)-1,1′-biphenyl-4-yl)methyl)oxy)phenyl)butanoic acid] |
| < 10 | 100 to 1000 | – | COc1ccc(F)c(-c2ccc(COc3cccc(C(CC(=O)O)C4CC4)c3F)cc2C(OC)C(C)(C)C)c1 (single isomer, unassigned) [Example 83.8] |
| 100 to 1000 | 100 to 1000 | – | CCCCOc1cc(COc2cccc(C(CCCC)CC(=O)O)c2)ccc1-c1cc(OC)ccc1F (single isomer, unassigned) [Example 71.2, (3R)-3-(3-(((2-(Butyloxy)-2′-fluoro-5′-(methyloxy)-1,1′-biphenyl-4-yl)methyl)oxy)phenyl)heptanoic acid or (3S)-3-(3-(((2-(butyloxy)-2′-fluoro-5′-(methyloxy)-1,1′-biphenyl-4-yl)methyl)oxy)phenyl)heptanoic acid] |
| 10 to 100 | 100 to 1000 | – | CCO[C@H](c1cc(COc2cccc([C@@H](CC(=O)O)C3CC3)c2F)ccc1-c1ccccc1F)C(C)(C)C (single isomer, unassigned) [Example 83.10] |
| < 10 | 100 to 1000 | – | COc1ccc(F)c(-c2cc(F)c(COc3cccc(C(CC(=O)O)CC4CC4)c3)cc2C2=CCCC2(C)C)c1 (single isomer, unassigned) [Example 69.30, (3R)-4-cyclopropyl-3-(3-(((2-(5,5-dimethyl-1-cyclopenten-1-yl)-2′,5-difluoro-5′-(methyloxy)-1,1′-biphenyl-4-yl)methyl)oxy)phenyl)butanoic acid or (3S)-4-cyclopropyl-3-(3-(((2-(5,5-dimethyl-1-cyclopenten-1-yl)-2′,5-difluoro-5′-(methyloxy)-1,1′-biphenyl-4-yl)methyl)oxy)phenyl)butanoic acid] |
| 10 to 100 | 100 to 1000 | – | CCC(C)(CC(=O)O)c1cccc(OCc2ccc(-c3cc(OC)ccc3F)c([C@@H]3CCCC3(C)C)c2)c1 (single isomer, unassigned) [Example 103, 3-(3-(((2-((1S)-2,2-Dimethylcyclopentyl)-2′-fluoro-5′-(methyloxy)-1,1′-biphenyl-4-yl)methyl)oxy)phenyl)-3-methylpentanoic acid or 3-(3-(((2-((1R)-2,2-dimethylcyclopentyl)-2′-fluoro-5′-(methyloxy)-1,1′-biphenyl-4-yl)methyl)oxy)phenyl)-3-methylpentanoic acid] |

Second part, the compound before the results:

| Structure (SMILES) | EC50 (GPR40 [1]) [nM] | EC50 (GPR40 [2]) [nM] | Aequorin EC50 (GPR40 [2]) |
| --- | --- | --- | --- |
| COc1ccc(F)c(-c2ccc(COc3cccc(C(C)CC(=O)O)c3)cc2CCC(C)(C)C)c1 (single isomer, unassigned) [Example 64.6, (3R)-3-(3-(((2-(3,3-Dimethylbutyl)-2′-fluoro-5′-(methyloxy)-1,1′-biphenyl-4-yl)methyl)oxy)phenyl)butanoic acid or (3S)-3-(3-(((2-(3,3-dimethylbutyl)-2′-fluoro-5′-(methyloxy)-1,1′-biphenyl-4-yl)methyl)oxy)phenyl)butanoic acid] | 10 to 100 | 100 to 1000 | – |
| COc1ccc(F)c(-c2ccc(COc3cccc(C(C)CC(=O)O)c3)cc2C(C)(C)C)c1 (single isomer, unassigned) [Example 42, (3R)-3-(3-(((2-(1,1-Dimethylethyl)-2′-fluoro-5′-(methyloxy)-1,1′-biphenyl-4-yl)methyl)oxy)phenyl)butanoic acid or (3S)-3-(3-(((2-(1,1-dimethylethyl)-2′-fluoro-5′-(methyloxy)-1,1′-biphenyl-4-yl)methyl)oxy)phenyl)butanoic acid] | 1000 to 10000 | 100 to 1000 | – |
| COc1cccc(-c2ccc(COc3cccc(C(CC(=O)O)CC4CC4)c3)cc2C(C)(C)C)c1 (single isomer, unassigned) [Example 69.3, (3R)-4-Cyclopropyl-3-(3-(((2-(1,1-dimethylethyl)-3′-(methyloxy)-1,1′-biphenyl-4-yl)methyl)oxy)phenyl)butanoic acid or (3S)-4-cyclopropyl-3-(3-(((2-(1,1-dimethylethyl)-3′-(methyloxy)-1,1′-biphenyl-4-yl)methyl)oxy)phenyl)butanoic acid] | 10 to 100 | 100 to 1000 | – |
| COc1ccc(F)c(-c2ccc(COc3cccc(C(C)CC(=O)O)c3)c(F)c2C(C)(C)C)c1 (single isomer, unassigned) [Example 64.10, (3R)-3-(3-(((2-(1,1-Dimethylethyl)-2′,3-difluoro-5′-(methyloxy)-1,1′-biphenyl-4-yl)methyl)oxy)phenyl)butanoic acid or (3S)-3-(3-(((2-(1,1-dimethylethyl)-2′,3-difluoro-5′-(methyloxy)-1,1′-biphenyl-4-yl)methyl)oxy)phenyl)butanoic acid] | 100 to 1000 | 100 to 1000 | – |
| COc1ccc(F)c(-c2ccc(COc3cccc(CCC(=O)O)c3)cc2C2=CCCC2)c1 [Example 39, 3-[3-(2-Cyclopent-1-enyl-2′-fluoro-5′-methoxy-biphenyl-4-ylmethoxy)-phenyl]-propionic acid] | 100 to 1000 | 1000 to 10000 | – |
| CCC[C@H](CC(=O)O)c1cccc(OCc2ccc(-c3cc(OC)ccc3F)c(N3CCCCC3)c2)c1 (single isomer, unassigned) [Example 67.20, (3R)-3-(3-(((2′-Fluoro-5′-(methyloxy)-2-(1-piperidinyl)-1,1′-biphenyl-4-yl)methyl)oxy)phenyl)hexanoic acid or (3S)-3-(3-(((2′-fluoro-5′-(methyloxy)-2-(1-piperidinyl)-1,1′-biphenyl-4-yl)methyl)oxy)phenyl)hexanoic acid] | 10 to 100 | 100 to 1000 | – |
| COc1cccc(-c2ccc(COc3cccc(C(CC(=O)O)C4CC4)c3)cc2C2=CCCC2(C)C)c1 (single isomer, unassigned) [Example 66.3, (3S)-3-Cyclopropyl-3-(3-(((2-(5,5-dimethyl-1-cyclopenten-1-yl)-3′-(methyloxy)-1,1′-biphenyl-4-yl)methyl)oxy)phenyl)propanoic acid or (3R)-3-cyclopropyl-3-(3-(((2-(5,5-dimethyl-1-cyclopenten-1-yl)-3′-(methyloxy)-1,1′-biphenyl-4-yl)methyl)oxy)phenyl)propanoic acid] | < 10 | – | +++/ ++++ |
| CCCCOc1cc(COc2cccc([C@H](C)CC(=O)O)c2)ccc1-c1cc(OC)ccc1F (single isomer, unassigned) [Example 5, (3R)-3-(3-(((2Butyloxy)-2′-fluoro-5′-(methyloxy)-1,1′-biphenyl-4-yl)methyl)oxy)phenyl)butanoic acid or (3S)-3-(3-(((2-(butyloxy)-2′-fluoro-5′-(methyloxy)-1,1′-biphenyl-4-yl)methyl)oxy)phenyl)butanoic acid] | 100 to 1000 | 100 to 1000 | – |
| CCC[C@H](CC(=O)O)c1cccc(OCc2ccc(-c3cc(OC)ccc3F)c([C@H]3CCCC3(C)C)c2)c1 (single isomer, unassigned) [Example 80.4] | < 10 | 100 to 1000 | – |
| COc1cccc(-c2ccc(COc3cccc(C(CC(=O)O)C4CC4)c3)cc2C2CCCC2(C)C)c1 (stereo not shown) [Example 66.8] | < 10 | 10 to 100 | – |
| COc1cccc(-c2ccc(COc3cccc([C@@H](CC(=O)O)C4CC4)c3)cc2C(C)(C)C)c1 (single isomer, unassigned) [Example 12, (3S)-3-Cyclopropyl-3-(3-(((2-(1,1-dimethylethyl)-3′-(methyloxy)-1,1′-biphenyl-4-yl)methyl)oxy)phenyl)propanoic acid or (3R)-3-cyclopropyl-3-(3-(((2-(1,1-dimethylethyl)-3′-(methyloxy)-1,1′-biphenyl-4-yl)methyl)oxy)phenyl)propanoic acid] | 100 to 1000 | 100 to 1000 | – |
